Experimental data as given in article PMC11137104, “Small molecule induced STING degradation facilitated by the HECT ligase HERC4” (Nature Communications, 2024).

How the values were obtained:
Assay in all cases: NanoBiT complementation of STING and HERC4 in HEK293T; also co-immunoprecipitation
Type in all cases: cell-based
[1] = molecular target: T1, STING^141-341-LgBiT : SmBiT-HERC4 (Homo sapiens, UniProt Q5GLZ8+Q86WV6); details: compound-induced STING-HERC4 association; dose-response, 16 h; binding site and direct binary binding not determined
T1 construct: gene STING1; STING cytosolic domain with connector helix (141-341), C-terminal LgBiT; full-length HERC4, N-terminal SmBiT; transient in HEK293T

[2] = molecular target: T2, STING^141-341-LgBiT : SmBiT-HERC4 (Homo sapiens, UniProt Q5GLZ8+Q86WV6, Q86WV6:K150R); details: compound-induced STING-HERC4 association; dose-response, 16 h; binding site and direct binary binding not determined
T2 construct: gene STING1; STING cytosolic domain with connector helix (141-341), C-terminal LgBiT; full-length HERC4, N-terminal SmBiT; transient in HEK293T

[3] = molecular target: T3, STING^155-341-LgBiT : SmBiT-HERC4 (Homo sapiens, UniProt Q5GLZ8+Q86WV6); details: compound-induced STING-HERC4 association; 16 h; binding site and direct binary binding not determined
T3 construct: gene STING1; full-length HERC4, N-terminal SmBiT; transient in HEK293T
T3 sequence (Q86WV6 155-341): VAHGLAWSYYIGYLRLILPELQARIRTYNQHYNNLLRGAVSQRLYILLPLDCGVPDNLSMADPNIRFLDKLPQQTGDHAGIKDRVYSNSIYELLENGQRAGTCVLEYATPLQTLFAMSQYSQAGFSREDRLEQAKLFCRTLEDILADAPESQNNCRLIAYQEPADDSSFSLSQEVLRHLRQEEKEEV
T3 sequence (Q5GLZ8 whole entry): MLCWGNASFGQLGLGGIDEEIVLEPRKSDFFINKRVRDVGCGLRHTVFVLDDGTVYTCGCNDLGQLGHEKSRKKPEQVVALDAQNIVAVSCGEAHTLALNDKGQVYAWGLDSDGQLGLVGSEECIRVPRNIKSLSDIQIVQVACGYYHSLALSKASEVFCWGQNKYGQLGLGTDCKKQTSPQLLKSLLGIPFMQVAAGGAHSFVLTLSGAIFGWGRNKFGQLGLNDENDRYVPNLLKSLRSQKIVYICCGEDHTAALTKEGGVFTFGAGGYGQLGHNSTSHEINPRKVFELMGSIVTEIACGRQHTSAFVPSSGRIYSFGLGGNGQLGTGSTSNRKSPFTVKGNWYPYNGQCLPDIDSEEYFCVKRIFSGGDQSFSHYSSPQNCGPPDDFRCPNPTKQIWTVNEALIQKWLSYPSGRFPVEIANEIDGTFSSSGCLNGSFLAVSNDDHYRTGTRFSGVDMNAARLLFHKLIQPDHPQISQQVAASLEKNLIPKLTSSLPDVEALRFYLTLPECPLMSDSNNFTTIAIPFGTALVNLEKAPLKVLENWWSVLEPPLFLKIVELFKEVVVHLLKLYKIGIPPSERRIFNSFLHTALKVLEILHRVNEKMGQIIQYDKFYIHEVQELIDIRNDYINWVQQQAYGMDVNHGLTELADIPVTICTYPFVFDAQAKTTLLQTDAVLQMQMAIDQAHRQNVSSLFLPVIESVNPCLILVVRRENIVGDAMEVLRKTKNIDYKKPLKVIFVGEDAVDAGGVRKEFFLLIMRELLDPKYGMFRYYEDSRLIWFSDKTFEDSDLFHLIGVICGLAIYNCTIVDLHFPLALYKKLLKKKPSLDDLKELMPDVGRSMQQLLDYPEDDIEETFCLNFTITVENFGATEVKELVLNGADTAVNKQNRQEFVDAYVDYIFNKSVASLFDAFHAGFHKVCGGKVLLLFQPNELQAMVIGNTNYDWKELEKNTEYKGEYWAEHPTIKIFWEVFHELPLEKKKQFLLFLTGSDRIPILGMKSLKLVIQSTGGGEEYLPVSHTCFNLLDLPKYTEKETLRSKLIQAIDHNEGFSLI

T1 sequence (Q86WV6 141-341): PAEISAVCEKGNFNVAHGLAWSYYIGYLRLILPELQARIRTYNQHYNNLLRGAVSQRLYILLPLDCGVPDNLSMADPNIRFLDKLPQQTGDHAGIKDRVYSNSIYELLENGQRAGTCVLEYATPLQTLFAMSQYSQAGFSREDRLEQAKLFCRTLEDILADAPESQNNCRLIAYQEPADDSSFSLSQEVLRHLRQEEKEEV
T1 sequence (Q5GLZ8 whole entry, the tested form may be a part): as the sequence (Q5GLZ8 whole entry) above
T2 sequence (Q86WV6 141-341 K150R): as the sequence (Q86WV6 141-341) above, with K10R counted along it
T2 sequence (Q5GLZ8 whole entry, the tested form may be a part): as the sequence (Q5GLZ8 whole entry) above

Structure (SMILES): O=S(=O)(Nc1ccc(-c2cccnc2)c2cccnc12)c1ccc(C(F)(F)F)cc1 [AK59, AK59-51TB]
- NanoBiT complementation of STING and HERC4 in HEK293T; also co-immunoprecipitati [1]: only AK59, but not the inactive analog QK50, is capable of inducing an interaction
- NanoBiT complementation of STING and HERC4 in HEK293T; also co-immunoprecipitati [2]: all constructs showed a luminescence signal indicating a direct interaction with HERC4 upon AK59
- NanoBiT complementation of STING and HERC4 in HEK293T; also co-immunoprecipitati [3]: all constructs showed a luminescence signal indicating a direct interaction with HERC4 upon AK59
